Data published in patent US20250032383A1, “PERSONAL CARE COMPOSITION” (Conopco, Inc., d/b/a UNILEVER, priority 2021, published 2025).

System: MelaKuits® living skin equivalent models
Assay: skin brightening efficacy in UVB-irradiated living skin equivalent models, lightness (L*) by DSM II Color Meter
Assay type: cell-based
Experimental: The skin brightening efficacy were evaluated by using MelaKuits® living skin equivalent models (Biocell, Xi'an, China). A series of identical living skin equivalent models were constructed by following manufacturer's instruction. After the models were constructed, the models were irradiated by UVB with an energy density of 50 mJ/cm^2, followed by culturing in fresh medium with or without actives for one day. Such irradiating and culturing process were repeated by using refreshed same medium for seven times. The lightness (L*) of each model were measured by using a DSM II Color Meter. The measurements of lightness were repeated at least three times. Similar experiments were conducted as that in Example 1 except that niacinamide was used and different batch of live equivalent models were used. The original lightness of the live equivalent models was different from that in Example 1.

CCCCCCC(O)CCCCCCCCCCC(=O)O (stereo not drawn) [12-HSA, 12-hydroxystearic acid]
Average lightness (L*) (Example 1 batch, UVB 50 mJ/cm^2, irradiating and culturing repeated seven times, 10 μM of 12-HSA in medium (UVB + medium only 32.4; blank control 43.4)): 35.2

NC(=O)c1cccnc1 [niacinamide, reference compound]
Average lightness (L*) (Example 2, different batch of models, UVB, 3 wt % of niacinamide in medium (UVB + medium only 66.86; blank control 71.43)): 71.15

Lysine carboxymethyl cysteinate [LCC]
improvement of the skin brightening efficacy of niacinamide (in words) (LCC 0.27 wt % added to 3 wt % niacinamide, Table 2): not capable of improving the skin brightening efficacy of niacinamide
